In patent US20090124501A1, “Silicic Acid Componenet Supplying Agent For Algae And Method For Supplying Silicic Acid Component To Algae” (Incorporated Administrative Agency Fisheries Research Agency, priority 2006, published 2009):

Tested on: Chaetoceros
Assay: Pigment and chlorophyll a content of Chaetoceros cultured for 20 days
Assay type: cell-based
Experimental: With respect to Chaetoceros cultured for 20 days after the silicic acid hydrogel and sodium metasilicate were added in an experimental plot and a control plot, respectively, under the same conditions as in Embodiment 3, difference in pigment and chlorophyll a content were examined. 20 mL of culture solution was collected from each of the experimental plot and the control plot, each cell density was measured, and only the cells were collected by suction filtration with a GF/F filter having a diameter of 47 mm (Whatman International Ltd.). Chlorophyll a was measured by a fluorescence method with a fluorometer (Turner Designs, Inc.) or by a measurement method with a spectrophotometer (Shimadzu Corporation).

O=[Si]([O-])[O-].[Na+].[Na+] [sodium metasilicate]
chlorophyll a content (Chaetoceros cultured for 20 days): 0.12-0.16 pg/cell
color of Chaetoceros collected on the filters, visual observation (after culturing for 20 days, GF/F filter): light brown color
